Measurements as given in ChEMBL document CHEMBL4732026, “Benzimidazole-1,2,3-triazole hybrid molecules: synthesis and study of their interaction with G-quadruplex DNA” (RSC Med Chem, 2021).
Active and inactive are the calls of the source. No cut-off for these calls is given here.

Experiments:
B16-F10 = test: Cytotoxicity against mouse B16-F10 cells assessed as reduction in cell viability measured after 72 hrs by MTT assay; format: functional, cell-based; settings: B16-F10, 72 h
PC-3 [1] = test: Cytotoxicity against human PC3 cells assessed as reduction in cell viability measured after 72 hrs by MTT assay; format: functional, cell-based; settings: PC-3, 72 h
CHO-K1 [2] = test: Cytotoxicity against […] cells assessed as reduction in cell viability measured after 72 hrs by MTT assay; format: cell-based; settings: Cricetulus griseus, CHO-K1, 72 h
PC-3 [3] = test: Induction of apoptosis in human PC-3 cells assessed as viable cells at 98 uM after 48 hrs by Annexin V based flow cytometric analysis (reference value: 89.57%); format: functional; settings: read-out: Activity
PC-3 [4] = test: Induction of apoptosis in human PC-3 cells assessed as early apoptic cells at 98 uM after 48 hrs by Annexin V based flow cytometric analysis (reference value: 0.40%); format: functional
[5] = Induction of apoptosis in CHO-K1 cells assessed as viable cells at 63 uM after 48 hrs by Annexin V based flow cytometric analysis (reference value: 93.71%); format: cell-based, Cricetulus griseus; settings: chinese hamster, read-out: Activity
CHO-K1 [6] = test: Induction of apoptosis in CHO-K1 cells assessed as early apoptic cells at 60 uM after 48 hrs by Annexin V based flow cytometric analysis (reference value: 4.58%); format: cell-based, Cricetulus griseus; settings: chinese hamster, cho-k1, 48 h
PC-3 [7] = test: Induction of apoptosis in human PC-3 cells assessed as early apoptic cells at 91 uM after 48 hrs by Annexin V based flow cytometric analysis (reference value: 0.40%); format: functional
PC-3 [8] = test: Induction of apoptosis in human PC-3 cells assessed as apoptotic cells at 98 uM incubated for 48 hrs by AnnexinV based flow cytometric analysis (reference value: 10.43%); format: functional
CHO-K1 [9] = test: Induction of apoptosis in CHO-K1 cells assessed as necrotic cells at 60 uM after 48 hrs by Annexin V based flow cytometric analysis (reference value: 0.70%); format: cell-based, Cricetulus griseus; settings: chinese hamster, cho-k1, 48 h
CHO-K1 [10] = test: Induction of reactive oxygen species generation in CHO-K1 cells after 48 hrs by DCFH-DA staining based flow cytometeric analysis; format: cell-based, Cricetulus griseus; settings: chinese hamster, cho-k1, 48 h
CHO-K1 [11] = test: Induction of apoptosis in CHO-K1 cells assessed as apoptic cells at 60 uM after 48 hrs by Annexin V based flow cytometric analysis (reference value: 6.29%); format: cell-based, Cricetulus griseus; settings: chinese hamster, cho-k1, 48 h
CHO-K1 [12] = test: Induction of apoptosis in CHO-K1 cells assessed as apoptic cells at 63 uM after 48 hrs by Annexin V based flow cytometric analysis (reference value: 6.29%); format: cell-based, Cricetulus griseus; settings: chinese hamster, cho-k1, 48 h
CHO-K1 [13] = test: Induction of apoptosis in CHO-K1 cells assessed as early apoptic cells at 63 uM after 48 hrs by Annexin V based flow cytometric analysis (reference value: 4.58%); format: cell-based, Cricetulus griseus; settings: chinese hamster, cho-k1, 48 h
PC-3 [14] = test: Induction of apoptosis in human PC-3 cells assessed as late apoptic cells at 98 uM after 48 hrs by Annexin V based flow cytometric analysis (reference value: 9.24%); format: functional
CHO-K1 [15] = test: Induction of apoptosis in CHO-K1 cells assessed as late apoptic cells at 60 uM after 48 hrs by Annexin V based flow cytometric analysis (reference value: 1.01%); format: cell-based, Cricetulus griseus; settings: chinese hamster, cho-k1, 48 h
PC-3 [16] = test: Induction of apoptosis in human PC-3 cells assessed as necrotic cells at 91 uM after 48 hrs by Annexin V based flow cytometric analysis (reference value: 0.79%); format: functional
CHO-K1 [17] = test: Induction of apoptosis in CHO-K1 cells assessed as late apoptic cells at 63 uM after 48 hrs by Annexin V based flow cytometric analysis (reference value: 1.01%); format: cell-based, Cricetulus griseus; settings: chinese hamster, cho-k1, 48 h
PC-3 [18] = test: Induction of apoptosis in human PC-3 cells assessed as viable cells at 91 uM after 48 hrs by Annexin V based flow cytometric analysis (reference value: 89.57%); format: functional; settings: read-out: Activity
PC-3 [19] = test: Induction of apoptosis in human PC-3 cells assessed as late apoptic cells at 91 uM after 48 hrs by Annexin V based flow cytometric analysis (reference value: 9.24%); format: functional
PC-3 [20] = test: Induction of apoptosis in human PC-3 cells assessed as apoptotic cells at 91 uM incubated for 48 hrs by AnnexinV based flow cytometric analysis (reference value: 10.43%); format: functional
PC-3 [21] = test: Induction of apoptosis in human PC-3 cells assessed as necrotic cells at 98 uM after 48 hrs by Annexin V based flow cytometric analysis (reference value: 0.79%); format: functional
CHO-K1 [22] = test: Induction of apoptosis in CHO-K1 cells assessed as necrotic cells at 63 uM after 48 hrs by Annexin V based flow cytometric analysis (reference value: 0.70%); format: cell-based, Cricetulus griseus; settings: chinese hamster, cho-k1, 48 h
[23] = Induction of apoptosis in CHO-K1 cells assessed as viable cells at 60 uM after 48 hrs by Annexin V based flow cytometric analysis (reference value: 93.71%); format: cell-based, Cricetulus griseus; settings: chinese hamster, read-out: Activity
Quadruplex DNA [24] = test: Binding affinity to c-Myc G-quadruplex DNA (unknown origin) assessed as increase in fluorescence intensity at 10.3 uM incubated for 5 mins by spectrofluorometric analysis; format: nucleic-acid assay
Quadruplex DNA [25] = test: Binding affinity to Tel Q G-quadruplex DNA (unknown origin) assessed as hypsochromic shift at 10.3 uM incubated for 5 mins by UV- vis spectrophotometric analysis; format: nucleic-acid assay
Quadruplex DNA [26] = test: Binding affinity to c-Myc G-quadruplex DNA (unknown origin) assessed as increase in fluorescence intensity at 8.5 uM incubated for 5 mins by spectrofluorometric analysis; format: nucleic-acid assay
Quadruplex DNA [27] = test: Binding affinity to Tel Q G-quadruplex DNA (unknown origin) assessed as dissociation constant incubated for 5 mins by UV- vis spectrophotometric analysis; format: nucleic-acid assay
Quadruplex DNA [28] = test: Binding affinity to Tel Q G-quadruplex DNA (unknown origin) assessed as increase in fluorescence intensity at 8.5 uM incubated for 5 mins by spectrofluorometric analysis; format: nucleic-acid assay
Quadruplex DNA [29] = test: Binding affinity to Tel Q G-quadruplex DNA (unknown origin) assessed as increase in fluorescence intensity at 10.3 uM incubated for 5 mins by spectrofluorometric analysis; format: nucleic-acid assay
dsDNA [30] = test: Binding affinity to double strand DNA (unknown origin) assessed as dissociation constant incubated for 5 mins by UV- vis spectrophotometric analysis; format: nucleic-acid assay
dsDNA [31] = test: Binding affinity to double strand DNA (unknown origin) assessed as hyperchromicity at 10.3 uM incubated for 5 mins by UV- vis spectrophotometric analysis; format: nucleic-acid assay
Quadruplex DNA [32] = test: Binding affinity to c-Myc G-quadruplex DNA (unknown origin) assessed as hypsochromic shift at 10.3 uM incubated for 5 mins by UV- vis spectrophotometric analysis; format: nucleic-acid assay
Quadruplex DNA [33] = test: Stabilization of Tel Q G-quadruplex DNA (unknown origin) assessed as change in melting temperature at 10.3 uM incubated for 5 mins by UV-visible thermal denaturation study; format: nucleic-acid assay
Quadruplex DNA [34] = test: Binding affinity to c-Myc G-quadruplex DNA (unknown origin) assessed as hyperchromicity at 10.3 uM incubated for 5 mins by UV- vis spectrophotometric analysis; format: nucleic-acid assay
dsDNA [35] = test: Binding affinity to double strand DNA (unknown origin) assessed as increase in fluorescence intensity at 10.3 uM incubated for 5 mins by spectrofluorometric analysis; format: nucleic-acid assay
dsDNA [36] = test: Stabilization of double strand DNA (unknown origin) assessed as change in melting temperature at 10.3 uM incubated for 5 mins by UV-visible thermal denaturation study; format: nucleic-acid assay
dsDNA [37] = test: Binding affinity to double strand DNA (unknown origin) assessed as increase in fluorescence intensity at 8.5 uM incubated for 5 mins by spectrofluorometric analysis; format: nucleic-acid assay
Quadruplex DNA [38] = test: Stabilization of c-Myc G-quadruplex DNA (unknown origin) assessed as change in melting temperature at 10.3 uM incubated for 5 mins by UV-visible thermal denaturation study; format: nucleic-acid assay
dsDNA [39] = test: Binding affinity to double strand DNA (unknown origin) assessed as hypsochromic shift at 10.3 uM incubated for 5 mins by UV- vis spectrophotometric analysis; format: nucleic-acid assay
Quadruplex DNA [40] = test: Binding affinity to Tel Q G-quadruplex DNA (unknown origin) assessed as hyperchromicity at 10.3 uM incubated for 5 mins by UV- vis spectrophotometric analysis; format: nucleic-acid assay
Quadruplex DNA [41] = test: Binding affinity to c-Myc G-quadruplex DNA (unknown origin) assessed as dissociation constant incubated for 5 mins by UV- vis spectrophotometric analysis; format: nucleic-acid assay

SMILES: FC(F)Oc1ccc2[nH]c(SCc3cn(-c4cccc(Cl)c4Cl)nn3)nc2c1
- IC50 (B16-F10): 90.5 µM
- IC50 (PC-3 [1]): 69.8 µM
- IC50 (CHO-K1 [2]): 85 µM

SMILES: C[n+]1ccc(-c2c3nc(c(-c4cc[n+](C)cc4)c4ccc([nH]4)c(-c4cc[n+](C)cc4)c4ccc([nH]4)c(-c4cc[n+](C)cc4)c4nc2C=C4)C=C3)cc1 [TMPYP4]
- IC50 (B16-F10): 77 µM
- IC50 (PC-3 [1]): 94.8 µM
- viability at 98 µM (PC-3 [3]): 51.3%
- Activity (PC-3 [4]): 0.9%
- viability at 48 h, 63 µM [5]: 75.2%
- Activity (CHO-K1 [6]): 13.72%
- IC50 (CHO-K1 [2]): 61.4 µM
- Activity (PC-3 [7]): 4.41%
- Activity (PC-3 [8]): 48.7%
- Activity (CHO-K1 [9]): 0.95%
- Activity (CHO-K1 [10]): Non-Toxic
- Activity (CHO-K1 [11]): 18.06%
- Activity (CHO-K1 [12]): 24.84%
- Activity (CHO-K1 [13]): 18.87%
- Activity (PC-3 [14]): 33.44%
- Activity (CHO-K1 [15]): 3.39%
- Activity (PC-3 [16]): 2.38%
- Activity (CHO-K1 [17]): 4.66%
- viability at 91 µM (PC-3 [18]): 75.2%
- Activity (PC-3 [19]): 18.01%
- Activity (PC-3 [20]): 24.8%
- Activity (PC-3 [21]): 14.36%
- Activity (CHO-K1 [22]): 1.31%
- viability at 48 h, 60 µM [23]: 81.9%

SMILES: O=[N+]([O-])c1ccc(-n2cc(CSc3nc4cc(OC(F)F)ccc4[nH]3)nn2)cc1
- IC50 (B16-F10): 203 µM
- Activity (Quadruplex DNA [24]): Active
- Activity (Quadruplex DNA [25]): 2.9 nm
- IC50 (PC-3 [1]): 59.2 µM
- Activity (Quadruplex DNA [26]): Active
- Kd (Quadruplex DNA [27]): 87.3 µM
- Activity (Quadruplex DNA [28]): Active
- Activity (Quadruplex DNA [29]): Active
- Kd (dsDNA [30]): 191 µM
- Activity (dsDNA [31]): 15.9%
- Activity (Quadruplex DNA [32]): 0.6 nm
- ΔTm (Quadruplex DNA [33]): 9 °C
- IC50 (CHO-K1 [2]): 100 µM
- Activity (Quadruplex DNA [34]): 11.7%
- Activity (dsDNA [35]): Active
- ΔTm (dsDNA [36]): 0 °C
- Activity (dsDNA [37]): Active
- ΔTm (Quadruplex DNA [38]): -5 °C
- Activity (dsDNA [39]): 1.6 nm
- Activity (Quadruplex DNA [40]): 31.4%
- Kd (Quadruplex DNA [41]): 79.2 µM

SMILES: Fc1ccc(-n2cc(CSc3nc4cc(OC(F)F)ccc4[nH]3)nn2)cc1F
- IC50 (B16-F10): 56.8 µM
- IC50 (PC-3 [1]): 65.2 µM
- IC50 (CHO-K1 [2]): 56.1 µM

SMILES: O=C(Cn1cc(CSc2nc3cc(OC(F)F)ccc3[nH]2)nn1)Nc1cccc(Cl)c1
- IC50 (B16-F10): 135 µM
- IC50 (PC-3 [1]): 136 µM
- IC50 (CHO-K1 [2]): 115 µM

SMILES: Cc1c(NC(=O)Cn2cc(CSc3nc4cc(OC(F)F)ccc4[nH]3)nn2)cccc1[N+](=O)[O-]
- IC50 (B16-F10): 103 µM
- IC50 (PC-3 [1]): 66.2 µM
- IC50 (CHO-K1 [2]): 62.2 µM
